PMC11984388, “A brain-accessible peptide modulates stroke inflammatory response and neurotoxicity by targeting BDNF-receptor TrkB-T1 specific interactome” (Theranostics, 2025)
Residues, ends and D or L forms follow the SMILES beside them. *: point of attachment. Biotin = O=C1N[C@H]2[C@H](CS[C@H]2CCCCC(=O)*)N1

Key:
[1] = Peptide delivery to brain cortex of undamaged animals; type: in vivo; details: 3 nmol/g i.v. (retro-orbital), undamaged male mice, sacrificed 30 min after; Fluorescein Avidin D (Fig S5)
Experimental: Vehicle (saline), Bio-TMyc or Bio-TT1Ct (3 nmol/g) were retro-orbitally injected in mice one hour after induction of photothrombotic damage or, alternatively, undamaged animals. In the first case, animals were sacrificed 5 h after damage induction while, the second group was sacrificed 30 min after peptide administration. The details of brain fixation and cryoprotection for peptide visualization and/or immunohistochemistry are provided in the Supplementary material. […]
Finally, the sa mple s were mounted in Prolong Diamond. The images were acquired using an inverted Zeiss LSM 710 laser confocal microscope (Jena, Germany) with a 40x or 63x Plan-Apochromatic oil immersion objective. Images corre spond to single se ctions and were normalized for eac h colour se para tely and process ed for presenta tion with ImageJ (NIH Image) and Fiji.
Peptide visualization and immunohistochemis tr y in brain cortex
For peptide visua liz ation in undamaged or damaged brains, animals were deeply anes thetized and intra cardially perfus ed with cold PBS and 4% paraformalde hyde in PBS. Brains were post-fixed in the sa m e fixative at 4°C for 24 h and cryoprote cted in 30% suc ros e for 48 h at 4°C. […]

[2] = test system: Bio-sTT1Ct-interacting proteins of primary cortical cultures; experiment: Pull-down with biotinylated peptide and label-free proteomics; type: binding, Rattus norvegicus; details: pull-down from neuronal-enriched cortical cultures; did not pass the selection criteria
Experimental: Cultures incubated with biotinylated peptides and treated as indicated were lysed at 4°C in NP-40 lysis buffer. Equal protein amounts were combined with streptavidin-agarose beads and incubated for 1.5 h for specifically-bounded protein isolation. Peptides and their interacting proteins were released by incubation at 50°C for 40 min in RIPA modified buffer. Peptide-interacting proteins were collected and subjected to LC-ESI-MS/MS (HR, medium gradient) protein identification using a mass spectrometer (Orbitrap Exploris 240) and Proteome Discoverer software for analysis (CNB Proteomics Facility, CSIC). Further procedure details are provided as Supplementary material.
Cultures were incubated with Bio-TMyc or Bio-sTT1Ct (30 min) before treatment with BDNF (100 ng/ml) or NMDA (100 µM) for 30 additional minutes, or left untreated (Figure 2A). […] Then, proteins interacting with Bio-TMyc and Bio-sTT1Ct were identified by a label free proteomic assay, obtaining a total of 4697 proteins for the three different biological conditions and four independent experiments analyzed. […] Therefore, we evaluated by a Principal Component Analysis (PCA) whether the interactome profiles obtained were different for both peptides (Figure 2B). […]
[…]

Structure (SMILES) | Crossing of the BBB and delivery to cortical cells [1] | Binding of RhoGDI (Arhgdia) to the peptide [2]
CC[C@H](C)[C@H](NC(=O)[C@H](CC(C)C)NC(=O)[C@H](CCCCN)NC(=O)[C@H](CCC(N)=O)NC(=O)[C@H](CCC(=O)O)NC(=O)[C@H](CCC(=O)O)NC(=O)[C@H](C)NC(=O)[C@H](CCCNC(=N)N)NC(=O)[C@H](CCCNC(=N)N)NC(=O)[C@H](CCCNC(=N)N)NC(=O)[C@H](CCC(N)=O)NC(=O)[C@H](CCCNC(=N)N)NC(=O)[C@H](CCCNC(=N)N)NC(=O)[C@H](CCCCN)NC(=O)[C@H](CCCCN)NC(=O)[C@H](CCCNC(=N)N)NC(=O)CNC(=O)[C@H](Cc1ccc(O)cc1)NC(=O)CCCC[C@@H]1SC[C@@H]2NC(=O)N[C@@H]21)C(=O)N[C@@H](CO)C(=O)N[C@@H](CCC(=O)O)C(=O)N[C@@H](CCC(=O)O)C(=O)N[C@@H](CC(=O)O)C(=O)N[C@@H](CC(C)C)C(=O)N[C@@H](CC(C)C)C(=O)N[C@@H](CCCNC(=N)N)C(N)=O [Bio-TMyc, reference compound] (Biotin-YGRKKRRQRRRAEEQKLISEEDLLR-NH2) | able to cross the BBB and efficiently reach most cortical cells in 30 min | 
CC[C@H](C)[C@H](NC(=O)[C@H](CCCCN)NC(=O)[C@H](Cc1c[nH]cn1)NC(=O)[C@H](Cc1ccccc1)NC(=O)[C@H](CC(C)C)NC(=O)[C@@H](NC(=O)[C@H](Cc1ccccc1)NC(=O)[C@H](CCCNC(=N)N)NC(=O)[C@H](CCCNC(=N)N)NC(=O)[C@H](CCCNC(=N)N)NC(=O)[C@H](CCC(N)=O)NC(=O)[C@H](CCCNC(=N)N)NC(=O)[C@H](CCCNC(=N)N)NC(=O)[C@H](CCCCN)NC(=O)[C@H](CCCCN)NC(=O)[C@H](CCCNC(=N)N)NC(=O)CNC(=O)[C@H](Cc1ccc(O)cc1)NC(=O)CCCC[C@@H]1SC[C@@H]2NC(=O)N[C@@H]21)C(C)C)C(=O)N1CCC[C@H]1C(=O)N[C@@H](CC(C)C)C(=O)N[C@@H](CC(=O)O)C(=O)NCC(N)=O [Bio-sTT1Ct] (Biotin-YGRKKRRQRRRFVLFHKIPLDG-NH2) |  | very low binding
